Reference: ChEMBL document CHEMBL4414672, “Synthesis of certain benzothieno[3,2-d]pyrimidine derivatives as a selective SIRT2 inhibitors” (Eur J Med Chem, 2020)

Key:
Assay type in all cases: functional
NCI/ADR-RES = assay: Growth inhibition of human NCI/ADR-RES cells at 10^-5 M incubated for 48 hrs by sulforhodamine B assay; settings: read-out: GI
NCI-H460 = assay: Growth inhibition of human NCI-H460 cells at 10^-5 M incubated for 48 hrs by sulforhodamine B assay; settings: NCI-H460, 48 h, read-out: GI
LOX IMVI = assay: Growth inhibition of human LOXIMVI cells at 10^-5 M incubated for 48 hrs by sulforhodamine B assay; settings: read-out: GI
MOLT-4 = assay: Growth inhibition of human MOLT4 cells at 10^-5 M incubated for 48 hrs by sulforhodamine B assay; settings: MOLT-4, 48 h, read-out: GI
SF-268 = assay: Growth inhibition of human SF268 cells at 10^-5 M incubated for 48 hrs by sulforhodamine B assay; settings: SF-268, 48 h, read-out: GI
DU-145 = assay: Growth inhibition of human DU145 cells at 10^-5 M incubated for 48 hrs by sulforhodamine B assay; settings: DU-145, 48 h, read-out: GI
U-251 = assay: Growth inhibition of human U251 cells at 10^-5 M incubated for 48 hrs by sulforhodamine B assay; settings: U-251, 48 h, read-out: GI
HOP-62 = assay: Growth inhibition of human HOP62 cells at 10^-5 M incubated for 48 hrs by sulforhodamine B assay; settings: HOP-62, 48 h, read-out: GI
MCF7 = assay: Growth inhibition of human MCF7 cells at 10^-5 M incubated for 48 hrs by sulforhodamine B assay; settings: MCF7, 48 h, read-out: GI
NCI-H522 = assay: Growth inhibition of human NCI-H522 cells at 10^-5 M incubated for 48 hrs by sulforhodamine B assay; settings: NCI-H522, 48 h, read-out: GI
ACHN = assay: Growth inhibition of human ACHN cells at 10^-5 M incubated for 48 hrs by sulforhodamine B assay; settings: read-out: GI
786-0 = assay: Growth inhibition of human 786-0 cells at 10^-5 M incubated for 48 hrs by sulforhodamine B assay; settings: 786-0, 48 h, read-out: GI
CAKI-1 = assay: Growth inhibition of human Caki1 cells at 10^-5 M incubated for 48 hrs by sulforhodamine B assay; settings: CAKI-1, 48 h, read-out: GI
HL-60(TB) = assay: Growth inhibition of human HL-60(TB) cells at 10^-5 M incubated for 48 hrs by sulforhodamine B assay; settings: HL-60, 48 h, read-out: GI
EKVX = assay: Growth inhibition of human EKVX cells at 10^-5 M incubated for 48 hrs by sulforhodamine B assay; settings: read-out: GI
HCT-116 = assay: Growth inhibition of human HCT116 cells at 10^-5 M incubated for 48 hrs by sulforhodamine B assay; settings: HCT-116, 48 h, read-out: GI
SF-295 = assay: Growth inhibition of human SF295 cells at 10^-5 M incubated for 48 hrs by sulforhodamine B assay; settings: SF-295, 48 h, read-out: GI
SK-MEL-28 = assay: Growth inhibition of human SK-MEL-28 cells at 10^-5 M incubated for 48 hrs by sulforhodamine B assay; settings: SK-MEL-28, 48 h, read-out: GI
IGROV-1 = assay: Growth inhibition of human IGROV1 cells at 10^-5 M incubated for 48 hrs by sulforhodamine B assay; settings: IGROV-1, 48 h, read-out: GI
HCC 2998 = assay: Growth inhibition of human HCC2998 cells at 10^-5 M incubated for 48 hrs by sulforhodamine B assay; settings: HCC 2998, 48 h, read-out: GI
MDA-MB-435 = assay: Growth inhibition of human MDA-MB-435 cells at 10^-5 M incubated for 48 hrs by sulforhodamine B assay; settings: MDA-MB-435, 48 h, read-out: GI
NCI-H226 = assay: Growth inhibition of human NCI-H226 cells at 10^-5 M incubated for 48 hrs by sulforhodamine B assay; settings: NCI-H226, 48 h, read-out: GI
HT-29 = assay: Growth inhibition of human HT-29 cells at 10^-5 M incubated for 48 hrs by sulforhodamine B assay; settings: HT-29, 48 h, read-out: GI
BT-549 = assay: Growth inhibition of human BT549 cells at 10^-5 M incubated for 48 hrs by sulforhodamine B assay; settings: BT-549, 48 h, read-out: GI
OVCAR-5 = assay: Growth inhibition of human OVCAR5 cells at 10^-5 M incubated for 48 hrs by sulforhodamine B assay; settings: OVCAR-5, 48 h, read-out: GI
KM12 = assay: Growth inhibition of human KM12 cells at 10^-5 M incubated for 48 hrs by sulforhodamine B assay; settings: KM12, 48 h, read-out: GI
COLO 205 = assay: Growth inhibition of human COLO205 cells at 10^-5 M incubated for 48 hrs by sulforhodamine B assay; settings: COLO 205, 48 h, read-out: GI
UO-31 = assay: Growth inhibition of human UO31 cells at 10^-5 M incubated for 48 hrs by sulforhodamine B assay; settings: UO-31, 48 h, read-out: GI
CCRF-CEM = assay: Growth inhibition of human CCRF-CEM cells at 10^-5 M incubated for 48 hrs by sulforhodamine B assay; settings: read-out: GI
A549 = assay: Growth inhibition of human A549/ATCC cells at 10^-5 M incubated for 48 hrs by sulforhodamine B assay; settings: A549, 48 h, read-out: GI
UACC-257 = assay: Growth inhibition of human UACC257 cells at 10^-5 M incubated for 48 hrs by sulforhodamine B assay; settings: UACC-257, 48 h, read-out: GI
SW-620 = assay: Growth inhibition of human SW620 cells at 10^-5 M incubated for 48 hrs by sulforhodamine B assay; settings: SW-620, 48 h, read-out: GI
Hs-578T = assay: Growth inhibition of human Hs 578T cells at 10^-5 M incubated for 48 hrs by sulforhodamine B assay; settings: read-out: GI
HCT-15 = assay: Growth inhibition of human HCT15 cells at 10^-5 M incubated for 48 hrs by sulforhodamine B assay; settings: HCT-15, 48 h, read-out: GI
SK-MEL-5 = assay: Growth inhibition of human SK-MEL-5 cells at 10^-5 M incubated for 48 hrs by sulforhodamine B assay; settings: SK-MEL-5, 48 h, read-out: GI
MDA-MB-468 = assay: Growth inhibition of human MDA-MB-468 cells at 10^-5 M incubated for 48 hrs by sulforhodamine B assay; settings: MDA-MB-468, 48 h, read-out: GI
SNB-75 = assay: Growth inhibition of human SNB75 cells at 10^-5 M incubated for 48 hrs by sulforhodamine B assay; settings: SNB-75, 48 h, read-out: GI
OVCAR-4 = assay: Growth inhibition of human OVCAR4 cells at 10^-5 M incubated for 48 hrs by sulforhodamine B assay; settings: OVCAR-4, 48 h, read-out: GI

Compound | inhibition of growth at 10 µM (NCI/ADR-RES) [%] | inhibition of growth at 10 µM (NCI-H460) [%] | inhibition of growth at 10 µM (LOX IMVI) [%] | inhibition of growth at 10 µM (MOLT-4) [%] | inhibition of growth at 10 µM (SF-268) [%] | inhibition of growth at 10 µM (DU-145) [%] | inhibition of growth at 10 µM (U-251) [%] | inhibition of growth at 10 µM (HOP-62) [%] | inhibition of growth at 10 µM (MCF7) [%] | inhibition of growth at 10 µM (NCI-H522) [%] | inhibition of growth at 10 µM (ACHN) [%] | inhibition of growth at 10 µM (786-0) [%] | inhibition of growth at 10 µM (CAKI-1) [%] | inhibition of growth at 10 µM (HL-60(TB)) [%] | inhibition of growth at 10 µM (EKVX) [%] | inhibition of growth at 10 µM (HCT-116) [%] | inhibition of growth at 10 µM (SF-295) [%] | inhibition of growth at 10 µM (SK-MEL-28) [%] | inhibition of growth at 10 µM (IGROV-1) [%] | inhibition of growth at 10 µM (HCC 2998) [%] | other results
O=C1Nc2c(sc3ccc(Cl)cc23)C(c2ccc3ccccc3c2)N1 (centres undefined) | -2.33 | 2.77 | -0.62 | 12.9 | 6.94 | -6.96 | 1.75 | 13.9 | 22.5 | 11.9 | 10.1 | 6.06 | 23.3 | 5.39 | 16.5 | -4.42 | 2.29 | 3.5 | 17.4 | -14.6 | inhibition of growth at 10 µM (MDA-MB-435): -8.72%; inhibition of growth at 10 µM (NCI-H226): 7.25%; inhibition of growth at 10 µM (HT-29): -0.76%; inhibition of growth at 10 µM (BT-549): -1.2%; inhibition of growth at 10 µM (OVCAR-5): 8.06%; inhibition of growth at 10 µM (KM12): -4.05%; inhibition of growth at 10 µM (COLO 205): -6.54%; inhibition of growth at 10 µM (UO-31): 37.4%; inhibition of growth at 10 µM (CCRF-CEM): -13.3%; inhibition of growth at 10 µM (A549): 4.41%; inhibition of growth at 10 µM (UACC-257): 14.5%; inhibition of growth at 10 µM (SW-620): 1.75%; inhibition of growth at 10 µM (Hs-578T): 3.46%; inhibition of growth at 10 µM (HCT-15): 1.48%; inhibition of growth at 10 µM (SK-MEL-5): 1.82%; inhibition of growth at 10 µM (MDA-MB-468): -13.7%; inhibition of growth at 10 µM (SNB-75): 21.5%; inhibition of growth at 10 µM (OVCAR-4): 3.19%
S=C1Nc2c(sc3ccc(Cl)cc23)C(c2ccc3ccccc3c2)N1 (centres undefined) | 4.45 | 6.2 | 7.47 | 7.43 | 10.3 | -6.73 | 7.46 | 10.1 | -6.73 | 17.7 | 12.4 | 4.93 | 27.5 | -2.53 | 14.6 | 9.94 | 3.23 | -2.16 | 16.8 | -16.7 | inhibition of growth at 10 µM (MDA-MB-435): -2.5%; inhibition of growth at 10 µM (NCI-H226): 20.6%; inhibition of growth at 10 µM (HT-29): 0.32%; inhibition of growth at 10 µM (BT-549): -9.88%; inhibition of growth at 10 µM (OVCAR-5): 5.36%; inhibition of growth at 10 µM (KM12): -6.6%; inhibition of growth at 10 µM (COLO 205): 0.1%; inhibition of growth at 10 µM (UO-31): -25.5%; inhibition of growth at 10 µM (CCRF-CEM): -3.09%; inhibition of growth at 10 µM (A549): 7.47%; inhibition of growth at 10 µM (UACC-257): 1.95%; inhibition of growth at 10 µM (SW-620): 3.99%; inhibition of growth at 10 µM (Hs-578T): 8.86%; inhibition of growth at 10 µM (HCT-15): 2.67%; inhibition of growth at 10 µM (SK-MEL-5): 5.24%; inhibition of growth at 10 µM (MDA-MB-468): 4.47%; inhibition of growth at 10 µM (SNB-75): 26%; inhibition of growth at 10 µM (OVCAR-4): 11%
Oc1ccccc1C1NC(=S)Nc2c1sc1ccc(Cl)cc21 (centres undefined) | 9.4 | 1.28 | 6.44 | 9.69 | 8.44 | -7.9 | -5.09 | 5.51 | -7.9 | 7.8 | 8.93 | 6.17 | 12.9 | -4.7 | 19.7 | 8.97 | -0.95 | -6.12 | 13.6 | -10.6 | inhibition of growth at 10 µM (MDA-MB-435): -10.2%; inhibition of growth at 10 µM (NCI-H226): 21.8%; inhibition of growth at 10 µM (HT-29): -1.54%; inhibition of growth at 10 µM (BT-549): -5%; inhibition of growth at 10 µM (OVCAR-5): 5.8%; inhibition of growth at 10 µM (KM12): 1.3%; inhibition of growth at 10 µM (COLO 205): -1.76%; inhibition of growth at 10 µM (UO-31): -8.34%; inhibition of growth at 10 µM (CCRF-CEM): -4.86%; inhibition of growth at 10 µM (A549): 5.42%; inhibition of growth at 10 µM (UACC-257): -1.4%; inhibition of growth at 10 µM (SW-620): -8%; inhibition of growth at 10 µM (Hs-578T): 8.15%; inhibition of growth at 10 µM (HCT-15): -0.05%; inhibition of growth at 10 µM (SK-MEL-5): 6.32%; inhibition of growth at 10 µM (MDA-MB-468): 8.75%; inhibition of growth at 10 µM (SNB-75): 21.1%; inhibition of growth at 10 µM (OVCAR-4): 7.52%
